“Also recorded” adds a separate entry of the source. Read-outs that look alike come from different tables or passages of the source.
How the values were obtained:
[1] = Dynamic vapor sorption (DVS); format: physicochemical
Description: Automated vapor sorption (VS) data were collected on a Surface Measurement System DVS Intrinsic instrument. Samples were not dried prior to analysis. Sorption and desorption data were collected over a range from 5% to 95% RH at 10% RH increments under a nitrogen purge. The equilibrium criterion used for analysis was less than 0.0100% weight change in 5 minutes with a maximum equilibration time of 3 hours. Data were not corrected for the initial moisture content of the samples. Post-analysis sample was submitted for XRPD analysis.

[2] = Physical stability of crystalline forms (XRPD after stress); format: physicochemical
Description: Physical stability of Form A was investigated.
Physical stability of Form F was investigated.
Physical stability of Form B was investigated.
Physical stability of Form C was investigated.
Because the solids of Form H were originally isolated damp with excess MeOH (see Example 7), an attempt to remove the excess solvent under vacuum (i.e., room temperature for 2 days) was performed.

[3] = Binary competitive interconversion slurry experiments; format: physicochemical; conditions: between room temperature and 50° C.
Description: Alternatively, interconversion experiments were performed to determine the thermodynamic relationship between polymorphs. […] Clarendon Press, Oxford, 2006; and Polymorphism in Pharmaceutical Solids. Brittain, Harry G. ed. Marcek Dekker, Inc. New York. 1999]. […] The choice of solvent affects the kinetics of polymorph conversion and not the thermodynamic relationship between polymorphic forms [Gu, C H., Young, V. Jr., Grant, D J. J. Pharm. Sci. 2001, 90 (11): 1878-1890].
Slurries were prepared at ambient and 50° C. using binary mixtures of Forms A/F, A/E, and E/F. Saturated solutions of the compound of formula (I) were generated in EtOAc or ACN at RT or 50° C. The solutions were filtered and approximately equivalent quantities of two of the polymorphs were added to the solutions. The samples were slurried for several days at the given temperature and the solids were collected by positive pressure filtration, or centrifugation/decantation. The solids were harvested and analyzed by an XRPD.

[4] = Physical stability of crystalline forms (XRPD after stress); format: physicochemical; conditions: higher temperature (e.g., 178° C.)
[5] = clinical trials, systemic MEK inhibitor; cited from earlier work
[6] = Approximate solubility, visually estimated by solvent aliquot addition; format: physicochemical; conditions: ambient temperature; for solubility: thermodynamic from solid
Description: A lot of the compound of formula (I) containing a mixture of Forms A and B was used for this study. Measured aliquots of a variety of solvents were added to weighed amounts of the material with sonication until the solution appeared clear or the maximum volume of the vial was reached. Solubility was calculated based on the total solvent used to give a solution. […] Values are rounded to the nearest whole number. […] If dissolution occurred as determined by the visual assessment after the addition of the first aliquot, the value is reported as “>”.

[7] = 90% RH at ambient temperature over 7 days

For `Cn1c(Nc2ccc(I)cc2F)c(C(=O)NOCCO)c2cccnc21` [Form A], the Hygroscopicity term ([1]; 5-95% RH) was “limited hygroscopicity”, the “post-DVS XRPD form” value ([1]; solid after DVS cycle) was “Form A” and the Physical stability [2, 7] was “stable”. The Physical stability ([2]; one (1) day at ambient temperature under vacuum) was “stable” and the “Relative thermodynamic stability of anhydrous forms” value (shortened to “Relative thermodynamic stability”) [3] was “most thermodynamically stable form; also recorded: more stable relative to Form E or F”.

In the case of `Cn1c(Nc2ccc(I)cc2F)c(C(=O)NOCCO)c2cccnc21` [Form B], the Physical stability ([2]; exposure to 45° C. (elevated temperature) under vacuum) is reported as “disordered; also recorded: slightly disordered XRPD pattern with additional unidentified peaks”, the Physical stability ([2]; under vacuum at ambient temperature over 2 days) is reported as “stable” and the “Form conversion by in situ variable temperature XRPD (vtXRPD)” value [4] is reported as “converts/crystallizes to anhydrous Form E”.

For `Cn1c(Nc2ccc(I)cc2F)c(C(=O)NOCCO)c2cccnc21` [Form E], the “Relative thermodynamic stability” value [3] was “more thermodynamically stable than Form F but less stable than Form A; also recorded: more stable relative to Form F”.

In the case of `Cn1c(Nc2ccc(I)cc2F)c(C(=O)NOCCO)c2cccnc21` [Form H], the Physical stability ([2]; under vacuum, room temperature for 2 days, damp solids with excess MeOH) is reported as “disordered mixture of Form H and Form A”.

In the case of `Cn1c(Nc2ccc(I)cc2F)c(C(=O)NOCCO)c2cccnc21` [Form F], the Physical stability [2, 7] is reported as “stable”, the Physical stability ([2]; under vacuum at room temperature for 5 days) is reported as “stable” and the “Relative thermodynamic stability” value [3] is reported as “least thermodynamically stable form”.

In the case of `Cn1c(Nc2ccc(I)cc2F)c(C(=O)NOCCO)c2cccnc21` [Form C], the Physical stability ([2]; about 42° C. for one day or about 45° C. for three days, under vacuum) is reported as “slightly disordered”.

For `O=C(NOC[C@H](O)CO)c1ccc(F)c(F)c1Nc1ccc(I)cc1F` [PD0325901], the Side effects [5] is given as “one or more neurological side effects associated with ataxia, confusion, and syncope; also recorded: neurological side effects associated with ataxia, confusion, and syncope”.

With `Cn1c(Nc2ccc(I)cc2F)c(C(=O)NOCCO)c2cccnc21` [Compound of Formula (I)] the solubility ([6]; aqueous with cosolvent or surfactant or cyclodextrin, 1:1 THF/H2O (v/v) (aw = 1.04), lot containing mixture of Forms A and B, read-out: Solubility) was 11000 µg/mL, the solubility ([6]; aqueous with cosolvent or surfactant or cyclodextrin, 3:1 acetone/H2O (v/v) (aw = 0.85), lot containing mixture of Forms A and B, read-out: Solubility) was 5000 µg/mL and the Solubility term ([6]; in heptane, H2O, and toluene) was “low solubility”. For the same molecule, the solubility ([6]; organic solvent or mixture, ACN, lot containing mixture of Forms A and B, read-out: Solubility) was 2000 µg/mL, the solubility ([6]; organic solvent or mixture, DCM, lot containing mixture of Forms A and B, read-out: Solubility) was 6000 µg/mL and the solubility ([6]; organic solvent or mixture, EtOAc, lot containing mixture of Forms A and B, read-out: Solubility) was 3000 µg/mL. It also gave a solubility ([6]; organic solvent or mixture, EtOH, lot containing mixture of Forms A and B, read-out: Solubility) of 3000 µg/mL, a solubility ([6]; organic solvent or mixture, MeOH, lot containing mixture of Forms A and B, read-out: Solubility) of 11000 µg/mL and a solubility ([6]; organic solvent or mixture, THF, lot containing mixture of Forms A and B, read-out: Solubility) of 29000 µg/mL. It also gave a solubility ([6]; organic solvent or mixture, acetone, lot containing mixture of Forms A and B, read-out: Solubility) of 8000 µg/mL, a solubility ([6]; organic solvent or mixture, heptane, lot containing mixture of Forms A and B, read-out: Solubility) of less than 1000 µg/mL and a solubility ([6]; organic solvent or mixture, in acetone, ACN, DCM, EtOAc, EtOH, MeOH, 3:1 v/v acetone/H2O, and 1:1 v/v THF/H2O, read-out: Solubility term) of 1000 to 20000 µg/mL. The solubility ([6]; organic solvent or mixture, toluene, lot containing mixture of Forms A and B, read-out: Solubility) was less than 1000 µg/mL and the solubility ([6]; water, H2O, lot containing mixture of Forms A and B, read-out: Solubility) was less than 1000 µg/mL.

Reference: US20250179062A1, “CRYSTALLINE FORMS OF A PYRROLOPYRIDINE-ANILINE COMPOUND” (NFLECTION THERAPEUTICS, INC., priority 2021, published 2025)
